Results: US20260250318A1, “COMPOSITIONS AND METHODS FOR CROSSING THE BLOOD BRAIN BARRIER” (VOYAGER THERAPEUTICS, INC., priority 2022, published 2026)

Experiments:
Details in all cases: synthetic library passage 3, intravenous, relative to wild-type AAV9
[1] = system: brain, spinal cord, and DRG of the NHPs; assay: NGS fold enrichment of synthetic library (passage 3) in NHPs, first cross-species screen; type: in vivo, cynomolgus macaques (Macaca fascicularis)
Method: (§1) After creation of the synthetic library with the sub-selected variants, the synthetic library was screened (passage 3) in two NHPs (2-4 years of age) and two strains of mice, BALB/c (n=3, 6-8 weeks of age) and C57Bl/6 mice (n=3, 6-8 weeks of age), in a first cross-species evolution screen. The animals were injected intravenously with the synthetic library. After a period in vivo, (e.g., 28-days) RNA was extracted from nervous tissue, e.g., brain, spinal cord, and DRG of the NHPs and the brains of mice. Following RNA recovery and RT-PCR amplification, a systematic NGS enrichment analysis was performed, and the peptides comprised within the variants were identified and the capsid enrichment ratio for each variant compared to the wild-type AAV9 control was calculated (fold enrichment relative to wild-type AAV9) (Table 9). […] All animals were dosed intravenously at […] across the screen.

brain [2] = assay: NGS fold enrichment of synthetic library (passage 3) in BALB/c mice, first cross-species screen; type: in vivo
Method: as §1

brain [3] = assay: NGS fold enrichment of synthetic library (passage 3) in C57Bl/6 mice, first cross-species screen; type: in vivo
Method: as §1

[4] = RNA from spinal cord of NHPs, NGS
[5] = RNA from brain of BALB/c mice, NGS
[6] = RNA from brain of C57Bl/6 mice, NGS

Row | Sequence | Fold enrichment over AAV9 in the brain of NHPs ([1]; RNA NGS, brain of NHPs) | Fold enrichment over AAV9 in the spinal cord of NHPs ([1]; RNA NGS, spinal cord of NHPs) | Fold enrichment over AAV9 in the brain of Mice (BALB/c) (brain [2]; RNA NGS, brain of BALB/c mice) | Fold enrichment over AAV9 in the brain of Mice (C57Bl/6) (brain [3]; RNA NGS, brain of C57Bl/6 mice) | Fold enrichment over AAV9 in the brain of NHPs ([1]; RNA from brain of NHPs, NGS) | Fold enrichment over AAV9 in the spinal cord of NHPs [1, 4] | Fold enrichment over AAV9 in the brain of Mice (BALB/c) (brain [2]; [5]) | Fold enrichment over AAV9 in the brain of Mice (C57Bl/6) (brain [3]; [6])
1 | GHSFVNRSGQNQQT | 2.447 fold | 11.148 fold | 0.756 fold | 1.305 fold | – | – | – | –
2 | GHTLTLSSGQNQQT | 3.405 fold | 5.648 fold | 0.606 fold | 0.648 fold | – | – | – | –
3 | GIARTTISGQNQQT | 1.078 fold | 1.783 fold | 0.330 fold | 0.819 fold | – | – | – | –
4 | GIFMQTPSGQNQQT | 2.344 fold | 6.198 fold | 0.252 fold | 0.938 fold | – | – | – | –
5 | GIILGASSGQNQQT | 3.630 fold | 4.868 fold | 0.865 fold | 1.378 fold | – | – | – | –
6 | GILLATPSGQNQQT | 1.931 fold | 8.205 fold | 0.288 fold | 1.341 fold | – | – | – | –
7 | GIMARDSSGQNQQT | 1.972 fold | 3.486 fold | 0.904 fold | 1.320 fold | – | – | – | –
8 | GIPSIRESGQNQQT | – | – | – | – | 1.282 fold | 0.166 fold | 0.254 fold | 0.484 fold
9 | GKPAGGLSGQNQQT | 1.085 fold | 2.805 fold | 0.739 fold | 0.708 fold | – | – | – | –
10 | GKSFVPQSGQNQQT | 1.489 fold | 2.502 fold | 0.430 fold | 1.798 fold | – | – | – | –
11 | GLAGHTVSGQNQQT | 3.632 fold | 0.229 fold | 0.202 fold | 0.972 fold | – | – | – | –
12 | GLAHKTSSGQNQQT | 1.106 fold | 0.915 fold | 0.690 fold | 0.427 fold | – | – | – | –
13 | GLGAYQSSGQNQQT | 1.574 fold | 0.696 fold | 0.688 fold | 1.407 fold | – | – | – | –
14 | GLGSKNHSGQNQQT | – | – | – | – | 1.187 fold | 5.046 fold | 0.224 fold | 0.825 fold
15 | GLGSKNPSGQNQQT | – | – | – | – | 1.147 fold | 1.629 fold | 0.424 fold | 1.184 fold
16 | GLGYPGSSGQNQQT | 1.763 fold | 7.090 fold | 0.577 fold | 0.929 fold | – | – | – | –

Row | Sequence | Fold enrichment over AAV9 in the brain of NHPs ([1]; RNA NGS, brain of NHPs) | Fold enrichment over AAV9 in the spinal cord of NHPs ([1]; RNA NGS, spinal cord of NHPs) | Fold enrichment over AAV9 in the brain of Mice (BALB/c) (brain [2]; RNA NGS, brain of BALB/c mice) | Fold enrichment over AAV9 in the brain of Mice (C57Bl/6) (brain [3]; RNA NGS, brain of C57Bl/6 mice) | Fold enrichment over AAV9 in the brain of NHPs ([1]; RNA from brain of NHPs, NGS) | Fold enrichment over AAV9 in the spinal cord of NHPs [1, 4] | Fold enrichment over AAV9 in the brain of Mice (BALB/c) (brain [2]; [5]) | Fold enrichment over AAV9 in the brain of Mice (C57Bl/6) (brain [3]; [6])
17 | GLHGMTLSGQNQQT | – | – | – | – | 1.226 fold | 3.552 fold | 0.338 fold | 0.470 fold
18 | GLLAGKSSGQNQQT | 1.491 fold | 2.981 fold | 0.946 fold | 0.999 fold | – | – | – | –
19 | GLNHFGASGQNQQT | 3.802 fold | 3.188 fold | 0.579 fold | 0.774 fold | – | – | – | –
20 | GLRLSTPSGQNQQT | 1.498 fold | 4.334 fold | 0.522 fold | 0.804 fold | – | – | – | –
21 | GLSAEKSSGQNQQT | 1.047 fold | 7.203 fold | 0.303 fold | 0.629 fold | – | – | – | –
22 | GLSNPMPSGQNQQT | 2.280 fold | 6.033 fold | 0.829 fold | 1.190 fold | – | – | – | –
23 | GLSWPSTSGQNQQT | 2.238 fold | 0.000 fold | 0.610 fold | 0.910 fold | – | – | – | –
24 | GMDHSRPSGQNQQT | 1.627 fold | 3.976 fold | 0.648 fold | 0.918 fold | – | – | – | –
25 | GMGRHSASGQNQQT | 1.417 fold | 6.500 fold | 0.389 fold | 0.470 fold | – | – | – | –
26 | GMRMEYQSGQNQQT | 1.729 fold | 3.695 fold | 0.632 fold | 0.644 fold | – | – | – | –
27 | GMRTYHLSGQNQQT | 9.241 fold | 1.939 fold | 1.586 fold | 2.033 fold | – | – | – | –
28 | GMSAHMSSGQNQQT | 2.456 fold | 5.255 fold | 0.947 fold | 1.310 fold | – | – | – | –
29 | GMTSHSVSGQNQQT | 1.850 fold | 2.732 fold | 0.154 fold | 0.220 fold | – | – | – | –
30 | GMYEYSQSGQNQQT | 1.438 fold | 0.000 fold | 0.448 fold | 1.410 fold | – | – | – | –
31 | GNGFSSASGQNQQT | 2.493 fold | 0.772 fold | 0.182 fold | 0.240 fold | – | – | – | –
